Assay results from US20030166583A1, “Dermal cytochrome P450 1A inhibitors and enhancers” (priority 2002, published 2003).
“Also recorded” adds a separate entry of the source.

Experiments:
CYP1A [1] = experiment: in vitro; settings: nude, mouse
Excerpt: (§1) Nude mice were sacrificed by decapitation.
(§2) The precipitate containing the microsomes was obtained.

CYP1A [2] = experiment: Liver microsomal CYP1A enzymatic activity, inhibition or enhancement; settings: nude, mouse, liver microsomes, pH 7.8, probe 7-ethoxyresorufin
Method: (§3) Nude mice were sacrificed by decapitation. The skin and liver were immediately removed and kept in ice bath or 4° C. […] Connective tissue, blood, and fat were carefully removed from the tissue. Excess water content was removed from the homogenized tissue by tissue papers before the tissue was weighed.
(§4) The suspension of homogenized tissue in potassium chloride solution was transferred into a Teflon pestle-glass homogenizer for homogenization for six (6) times. Then, potassium chloride solution was added into the homogenized suspension to bring the volume to about four (4) times of the homogenized suspension. The diluted suspension was 5 transferred into a centrifuge tube and centrifuged at 4° C., 9000 xg, for twenty (20) minutes. The supernatant containing microsomes from skin or liver tissue and other soluble substance were removed and the volume of the supernatant was brought up to four (4) times of the weight of the tissue by adding potassium chloride solution. The diluted supernatant was transferred into a centrifuge tube and centrifuged at 4° C., 100,000 xg, for one (1) hour (Beckman L8-80M). The precipitate containing the microsomes was obtained. Potassium chloride solution was added into the precipitate to bring the volume up to four (4) times of the weight of the tissue, and the suspension was centrifuged at 4° C., 100,000 xg for one (1) hour, to obtain the washed microsomes, which were stored at −78° C. in 0.1M KH2PO4-K2HPO4 buffer (pH=7.4).
(§5) The enzymatic activity of CYP1A was determined based on the activity of 7-ethoxyresorufin-O-deethylase (i.e., for CYP1A) and 7-methoxyresorufin-O-demethylase (i.e., CYP1A2). […] Except for the blank group, the reaction was triggered by adding 0.54 μM NADPH. In the test tube (16×100 mm), the reaction was carried out for ten (10) minutes at constant temperature (37° C.) with vibration and without light Methanol 2.5 ml was added into the reaction mixture to stop the reaction. Protein precipitate was removed from the reaction mixture by centrifuging the reaction mixture at 180 xg for ten (10) minutes. The supernatant was tested for florescent intensity with 550 nm as the excitation wavelength and 585 nm the emission wavelength. The florescent intensity was compared with 0.01 μM-0.1 μM standard Rhodamine B solution to obtain the reading of the CYP1A enzyme activity.

liver CYP1A = experiment: as above; settings: for enhancing effect on liver CYP1A activity, in words / inhibitory effect on liver CYP1A activity, in words: at certain concentration (1, 10 or 100 μM); for liver CYP1A activity (% of control group): liver microsomes
Method: as §3, §4, §5

dermal CYP1A = experiment: Dermal microsomal CYP1A enzymatic activity (7-ethoxyresorufin-O-deethylase), inhibition or enhancement; settings: for inhibitory effect on dermal CYP1A activity, in words: at certain concentration (1, 10 or 100 μM); for enhancing effect on dermal CYP1A activity, in words: at certain concentrations (1, 10 or 100 μM)
Excerpt: as §1, §2

[3] = pH 7.8, dermal CYP1A activity (% of control group)
[4] = pH 7.8, inhibition of dermal CYP1A activity
[5] = compound 1 μM, skin microsomes, mean of at least 3 repeats
[6] = compound 10 μM, skin microsomes, mean of at least 3 repeats
[7] = compound 100 μM, skin microsomes, mean of at least 3 repeats

Row | Compound | enhancing effect on liver CYP1A activity, in words (liver CYP1A) | inhibitory effect on dermal CYP1A activity, in words (dermal CYP1A) | liver CYP1A activity (% of control group) (liver CYP1A; compound 1 μM) [%] | liver CYP1A activity (% of control group) (liver CYP1A; compound 10 μM) [%] | liver CYP1A activity (% of control group) (liver CYP1A; compound 100 μM) [%] | dermal CYP1A activity (% of control group) (dermal CYP1A; [5]) [%] | dermal CYP1A activity (% of control group) (dermal CYP1A; [6]) [%] | dermal CYP1A activity (% of control group) (dermal CYP1A; [7]) [%] | also measured
1 | O=C/C=C/c1ccccc1 [Trans-cinnamaldehyde] | – | – | – | – | – | – | – | – | inhibition at 10 min, 100 µM (CYP1A [1]; pH 7.8): ~80%
2 | O=c1c(-c2ccc(O)cc2)coc2cc(O)ccc12 [Daidzein] | – | – | – | – | – | – | – | – | activity at 10 min, 1 µM (CYP1A [2]): 109%; activity at 10 min, 10 µM (CYP1A [2]): 112%; activity at 10 min, 100 µM (CYP1A [2]): 135%; activity at 10 min, 1 µM (CYP1A [1]; [3]): 77.5%; activity at 10 min, 10 µM (CYP1A [1]; [3]): 71.7%; activity at 10 min, 100 µM (CYP1A [1]; [3]): 77.2%; inhibition at 10 min, 10 µM (CYP1A [1]; [4]): ~28%
3 | CC12CCC(CC1)C(C)(C)O2 [Cineole] | enhancing effect | – | – | – | – | – | – | – | inhibitory effect on liver CYP1A activity, in words (liver CYP1A): inhibitory effects; activity at 10 min, 1 µM (CYP1A [2]): 117%; activity at 10 min, 10 µM (CYP1A [2]): 99.9%; activity at 10 min, 100 µM (CYP1A [2]): 94.7%; activity at 10 min, 1 µM (CYP1A [1]; [3]): 199%; activity at 10 min, 10 µM (CYP1A [1]; [3]): 130%; activity at 10 min, 100 µM (CYP1A [1]; [3]): 96.4%; inhibition at 10 min, 100 µM (CYP1A [1]; [4]): ~5%
4 | O=C(O)/C=C/c1ccc(O)cc1O [Umbellic acid] | enhancing effect | – | – | – | – | – | – | – | activity at 10 min, 100 µM (CYP1A [2]): 121%
5 | COc1ccc(-c2coc3cc(O)ccc3c2=O)cc1 [Formononetin] | enhancing effect; also recorded: most enhancing effect | – | – | – | – | – | – | – | activity at 10 min, 1 µM (CYP1A [2]): 121%; activity at 10 min, 10 µM (CYP1A [2]): 144%; activity at 10 min, 100 µM (CYP1A [2]): 145%; activity at 10 min, 1 µM (CYP1A [1]; [3]): 67%; activity at 10 min, 10 µM (CYP1A [1]; [3]): 109%; activity at 10 min, 100 µM (CYP1A [1]; [3]): 85.9%; inhibition at 10 min, 1 µM (CYP1A [1]; [4]): ~33%
6 | C=C(C)C1CC=C(C)CC1 (single isomer, unassigned; (+)) [(+)-Limonene] | – | inhibition effects | – | – | – | – | – | – | enhancing effect on dermal CYP1A activity, in words (dermal CYP1A): enhancing effects; inhibition of dermal CYP1A activity (dermal CYP1A; compound 1 μM): about 51%
7 | O=C1C[C@@H](c2ccc(O)cc2)Oc2cc(O)cc(O)c21 [Narigenin] | enhancing effect | inhibition effects | 116.45 | 107.17 | 41.64 | 29.41 | 34.90 | 17.26 | inhibitory effect on liver CYP1A activity, in words (liver CYP1A): inhibitory effects; inhibition of dermal CYP1A activity (dermal CYP1A; compound 100 μM): about 83%
8 | C=C[C@H]1[C@H](O[C@@H]2O[C@H](CO)[C@@H](O)[C@H](O)[C@H]2O)OC=C2C(=O)OCC[C@]21O [Swertiamarin] | – | – | – | – | – | – | – | – | activity at 10 min, 1 µM (CYP1A [1]; pH 7.8): 98.5%; activity at 10 min, 10 µM (CYP1A [1]; pH 7.8): 96.5%; activity at 10 min, 100 µM (CYP1A [1]; pH 7.8): 105%
9 | O=C(O)[C@H]1O[C@@H](Oc2cc3oc(-c4ccccc4)cc(=O)c3c(O)c2O)[C@H](O)[C@@H](O)[C@@H]1O [Baicalin] | enhancing effect | inhibition effects | 106.19 | 90.79 | 106.06 | 90.14 | 82.85 | 75.91 | inhibitory effect on liver CYP1A activity, in words (liver CYP1A): inhibitory effects; inhibition of dermal CYP1A activity (dermal CYP1A; compound 100 μM): about 24%
10 | COc1c(O)cc2oc(Oc3ccc(O)cc3)cc(=O)c2c1O [capillarisin, Capillarisin] | – | strong inhibitory effects | – | – | – | – | – | – | –
11 | COc1ccc([C@@H]2CC(=O)c3c(O)cc(O[C@@H]4O[C@H](CO[C@@H]5O[C@@H](C)[C@H](O)[C@@H](O)[C@H]5O)[C@@H](O)[C@H](O)[C@H]4O)cc3O2)cc1O [Hesperidin] | enhancing effect | inhibition effects | 99.65 | 87.38 | 102.94 | 62.61 | 52.72 | 57.75 | inhibitory effect on liver CYP1A activity, in words (liver CYP1A): inhibitory effects; inhibition of dermal CYP1A activity (dermal CYP1A; compound 10 μM): about 47%
12 | O=c1cc(-c2ccc(O)c(O)c2)oc2cc(O[C@@H]3O[C@H](CO)[C@@H](O)[C@H](O)[C@H]3O)cc(O)c12 [Luteolin-7-glucoside] | enhancing effect | inhibition effects | 109.79 | 119.53 | 123.78 | 105.07 | 88.05 | 2.53 | inhibitory effect on dermal CYP1A activity, in words (dermal CYP1A; listed as luteolin-7-glycoside): strongest inhibitory effect; also recorded: most effective inhibitors; enhancing effect on dermal CYP1A activity, in words (dermal CYP1A): enhancing effects; inhibition of dermal CYP1A activity (dermal CYP1A; compound 100 μM, 100 µM): about 97%
13 | COc1ccc([C@@H]2CC(=O)c3c(O)cc(O)cc3O2)cc1O [Hesperetin] | – | – | – | – | – | – | – | – | dose dependence of the inhibitory effect on dermal CYP1A (dermal CYP1A): the higher the hesperetin concentration, the lower the inhibitory effect; dermal CYP1A activity (% of control group) (dermal CYP1A; nude, mouse, 10 min, 1 µM, pH 7.8): 6.89%; activity at 10 min, 1 µM (CYP1A [1]; [3]): ~7%; activity at 10 min, 10 µM (CYP1A [1]; [3]): 24.6%; activity at 10 min, 100 µM (CYP1A [1]; [3]): 66%; inhibition at 10 min, 1 µM (CYP1A [1]; [4]): > 90%
14 | Oc1cc(O)c2c(c1)O[C@H](c1ccc(O)c(O)c1)[C@@H](O)C2 [(+)-Catechin] | enhancing effect | inhibition effects | 90.00 | 120.23 | 116.48 | 78.10 | 91.97 | 99.99 | inhibitory effect on liver CYP1A activity, in words (liver CYP1A): inhibitory effects; enhancing effect on dermal CYP1A activity, in words (dermal CYP1A): enhancing effects; inhibition of dermal CYP1A activity (dermal CYP1A; compound 1 μM): about 22%
15 | O=c1cc(-c2ccc(O)c(O)c2)oc2cc(O)c([C@@H]3O[C@H](CO)[C@@H](O)[C@H](O)[C@H]3O)c(O)c12 [homoorientin] | – | strong inhibitory effects | – | – | – | – | – | – | –
16 | O=C(O)c1cc(O)c(O)c(O)c1 [Gallic acid] | – | – | – | – | – | – | – | – | activity at 10 min, 10 µM (CYP1A [2]): 123%; activity at 10 min, 100 µM (CYP1A [2]): 105%; activity at 10 min, 1 µM (CYP1A [1]; [3]): 102%; activity at 10 min, 10 µM (CYP1A [1]; [3]): 107%; activity at 10 min, 100 µM (CYP1A [1]; [3]): 88.2%; inhibition at 10 min, 100 µM (CYP1A [1]; [4]): ~12%
17 | Oc1cc(O)c2c(c1)O[C@H](c1ccc(O)c(O)c1)[C@H](O)C2 [(−)-Epicatechin] | enhancing effect; also recorded: most enhancing effect | inhibition effects | 133.54 | 139.91 | 147.44 | 85.69 | 121.77 | 129.82 | enhancing effect on liver CYP1A activity (liver CYP1A; compound 1 μM): about 34%; enhancing effect on dermal CYP1A activity, in words (dermal CYP1A): enhancing effects; also recorded: strongest enhancing effect; enhancement of dermal CYP1A activity (dermal CYP1A; compound 10 μM): 22%; enhancement of dermal CYP1A activity (dermal CYP1A; compound 100 μM): about 30%; enhancement of dermal microsomal CYP1A activity (dermal CYP1A; concentration between about 10 μM and about 100 μM): at least 20%
18 | C[C@@H]1O[C@@H](O[C@H]2[C@H](Oc3cc(O)c4c(c3)O[C@H](c3ccc(O)cc3)CC4=O)O[C@H](CO)[C@@H](O)[C@@H]2O)[C@H](O)[C@H](O)[C@H]1O [Narigin] | enhancing effect; also recorded: most enhancing effect | inhibition effects | 138.88 | 119.79 | 120.55 | 149.99 | 103.30 | 77.31 | enhancing effect on liver CYP1A activity (liver CYP1A; compound 100 μM): about 21%; enhancing effect on dermal CYP1A activity, in words (dermal CYP1A): enhancing effects; also recorded: strongest enhancing effect; enhancement of dermal CYP1A activity (dermal CYP1A; compound 1 μM): about 50%; inhibition of dermal CYP1A activity (dermal CYP1A; compound 100 μM): about 23%
19 | Oc1cc(O)c2c(c1)O[C@@H](c1ccc(O)c(O)c1)[C@@H](O)C2 [(+)-Epicatechin] | enhancing effect | inhibition effects | 124.29 | 129.86 | 130.95 | 65.55 | 86.15 | 105.09 | enhancing effect on dermal CYP1A activity, in words (dermal CYP1A): enhancing effects; inhibition of dermal CYP1A activity (dermal CYP1A; compound 1 μM): about 34%
20 | O=c1cc(-c2ccccc2)oc2cc(O)c(O)c(O)c12 [Baicalein] | enhancing effect | inhibition effects | 110.67 | 114.18 | – | 64.73 | 48.84 | 55.82 | inhibition of dermal CYP1A activity (dermal CYP1A; compound 10 μM): about 47%
21 | O=c1cc(-c2ccc(O)c(O)c2)oc2cc(O)cc(O)c12 [Luteolin] | – | – | – | – | – | – | – | – | activity at 10 min, 1 µM (CYP1A [2]): 115%; activity at 10 min, 10 µM (CYP1A [2]): 104%; activity at 10 min, 100 µM (CYP1A [2]): 33.4%; activity at 10 min, 1 µM (CYP1A [1]; [3]): 59.1%; activity at 10 min, 10 µM (CYP1A [1]; [3]): 19.4%; activity at 10 min, 100 µM (CYP1A [1]; [3]): 10.4%; inhibition at 10 min, 100 µM (CYP1A [1]; [4]): ~90%
